Test [1] relates to Apteronotus leptorhynchus. The test is described as follows: Neuro-behavioral assay: locomotor activity and induction of anesthesia. It is filed as in vivo. The note with it: 1 μM to 60 μM, exposure times of up to 48 hours; negative control.
In test [2] the test system is Apteronotus leptorhynchus. The test is described as follows: Neuro-behavioral assay: chirps (EOD modulations). It is filed as in vivo. The settings on record: 1 μM to 60 μM, exposure times of up to 48 hours; negative control.
Test [3] deals with Apteronotus leptorhynchus. Briefly: Neuro-behavioral assay: effect on EOD frequency. It is filed as in vivo. The note with it: 1 μM to 60 μM, exposure times of up to 48 hours; negative control.
In test [4] the test system is Mauthner cell. The note with it: cited from earlier work.

Where two headings read alike, the source gives them in different places.

For `NC12CC3CC(CC(C3)C1)C2` [Amantadine], the “Effect on locomotor activity” value in test [1] is “no effects”. Also, the “Effect on EOD modulations” value in test [2] is “no effects”. In addition, in test [3], the “Effect on EOD frequency” value is recorded as “no effects”.

For the compound `CC=Cc1ccc(O)c(OC)c1` [isoeugenol], the “Effect on generation and propagation of action potentials” value is reported as “No effect” in test [4] (10 mg/L and 20 mg/L, exposure for more than 1 hour); “slight decrease in the slope of action potentials” in test [4] (40 mg/L, after 10-30 min); “additional aspects of the action potential were affected” in test [4] (60 mg/L, exposure for at least 10-30 min).

Source of the values: patent US20240207454A1, “NEURO-BEHAVIORAL ASSAY FOR PHYSIOLOGICAL EVALUATION OF WATER-SOLUBLE ANESTHETICS” (Northeastern University, priority 2022, published 2024).
